{"source": "patent US20240285724A1", "about": "“METHODS AND COMPOSITIONS FOR TREATING OCULAR DISORDERS AND DISEASES” (ONL Therapeutics, Inc., priority 2021, published 2024)", "key": {"[1]": {"assay": "Ocular tissue concentration of ONL1204 after intravitreal injection in rabbit eye (LC-MS/MS)", "conditions": "rabbit vitreous humor; single dose 0.1 mg/eye IVT, days 0 to 168", "procedure": "Standards and blanks were vortex mixed. […] Two hundred (200) uL of water was added.\nThe samples were then vortex mixed for 5 minutes.\nThe samples were dried with nitrogen at 35° C."}, "[2]": {"test_system": "retinal pigment epithelial cell death", "assay": "Sodium iodate (NaIO3) challenge study, lesion area by fluorescein angiography", "type": "in vivo", "conditions": "rabbit", "procedure": "The resulting area was then measured."}}, "note": "Residues, ends and D or L forms follow the SMILES beside them.", "data": [{"smiles": "CC[C@H](C)[C@H](NC(=O)[C@H](Cc1ccc(O)cc1)NC(=O)[C@H](CC(N)=O)NC(=O)[C@@H](NC(=O)[C@H](C)NC(=O)CNC(=O)[C@H](CC(C)C)NC(=O)[C@H](Cc1ccc(O)cc1)NC(=O)[C@@H](NC(=O)[C@H](Cc1cnc[nH]1)NC(=O)[C@@H](N)Cc1cnc[nH]1)[C@@H](C)CC)C(C)C)C(=O)N[C@@H](Cc1ccc(O)cc1)C(N)=O", "note": "[ONL1204] (H-HHIYLGAVNYIY-NH2)", "values": [{"measurement": "t1/2 (half-life in the vitreous)", "setting": "[1]", "value": 279.8, "unit": "days"}, {"measurement": "Lesion size vs negative control", "setting": "[2]; 25 ug per eye IVT on Day 0, NaIO3 challenge Day 4", "value": "significantly lower than negative control"}, {"measurement": "Lesion size vs negative control", "setting": "[2]; 100 ug per eye IVT on Day 0, NaIO3 challenge Day 4", "value": "significantly lower than negative control"}, {"measurement": "Lesion size vs negative control", "setting": "[2]; 100 ug per eye IVT on Day 0, NaIO3 challenge Day 14", "value": "significantly smaller lesion size then both negative controls and those treated with 25 ug"}, {"measurement": "Lesion size vs negative control", "setting": "[2]; 100 ug per eye IVT on Day 0, NaIO3 challenge Day 28", "value": "significantly smaller lesion size then both negative control animals and those treated with 25 ug"}]}]}
